# Measurements from patent US20030180295A1, “Angiocidin: a Cys-Ser-Val-Thr-Cys-Gly specific tumor cell adhesion receptor” (Philadelphia Health and Education Corporation, priority 1999, published 2003).
# Assays:
# [1] = molecular target: T1, biotin-angiocidin complex binding to TSP-1 (Homo sapiens, UniProt P55036, INS254GER); test: Biotin-avidin receptor binding assay: competition; details: Example 23, FIGS. 29 and 30
# T1 sequence (P55036 with tags, fused parts or gaps INS254GER): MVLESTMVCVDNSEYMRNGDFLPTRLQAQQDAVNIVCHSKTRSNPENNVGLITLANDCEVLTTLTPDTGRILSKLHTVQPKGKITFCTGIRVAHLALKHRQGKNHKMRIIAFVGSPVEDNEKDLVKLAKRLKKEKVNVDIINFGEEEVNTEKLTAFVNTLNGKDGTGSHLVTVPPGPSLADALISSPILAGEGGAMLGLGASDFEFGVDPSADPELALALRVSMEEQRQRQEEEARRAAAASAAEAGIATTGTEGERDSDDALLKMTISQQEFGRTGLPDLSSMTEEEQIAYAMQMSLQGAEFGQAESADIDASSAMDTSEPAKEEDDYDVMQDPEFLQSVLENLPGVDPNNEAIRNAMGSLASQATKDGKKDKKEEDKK
# Method: In the following experiments, TSP-1 was covalently bound to a substrate, biotinylated angiocidin was added to the plate, and avidin-peroxidase was added to measure how much biotinylated angiocidin was attached to the TSP-1. The avidin-peroxidase was measured using a spectrophotometer at an absorbance of 450 nm.
# Free angiocidin was added to the system to compete with the biotinylated angiocid in. […] Immobilized BSA was used as a negative control.
# The TSP-1 peptide Cys-Ser-Val-Thr-Cys-Gly (SEQ ID NO: 1) was added to the system to compete with the TSP-1 on the plate for binding with the biotinylated angiocidin. The scrambled peptide Val-Cys-Thr-Gly-Ser-Cys (SEQ ID NO: 15) was used as a negative control and had no effect.
# The avidin-biotin system discussed above was used to evaluate the competitive effect of various peptides on the binding of TSP-1 and angiocidin. […] The scrambled peptide Val-Cys-Thr-Gly-Ser-Cys-Gly (SEQ ID NO: 21) and the d-orientation peptide d-Cys-Ser-Val-Thr-Cys-Gly (SEQ ID NO: 22) were used as negative controls.
# [2] = test system: Bovine aortic endothelial cells (BAEC); test: Morphology of BAEC monolayer cultures; format: cell-based; details: 0.37, 3.7, 37 μg/ml, 24 hours, serum-free medium with 1% BSA
# Method: In this experiment, BAEC cells in monolayer cultures were plated for 24 hours in serum-free medium containing 1% BSA in the presence of increasing concentrations of angiocidin (control=none, 0.37 μg/ml, 3.7 μg/ml, 37 μg/ml). Hoffman interference microscopy (100×) was used to photograph the cells.
# [3] = test system: Lung Human Microvascular Endothelial Cells (HMVEC-L); test: ALAMAR BLUE cell viability assay; format: cell-based; details: Example 26
substance,measurement,setting,value
angiocidin: Cys-Ser-Val-Thr-Cys-Gly (SEQ ID NO: 1)-specific thrombospondin (TSP-1) receptor protein; recombinant form of SEQ ID NO: 2 used in the Examples,competition of biotin-angiocidin binding to TSP-1,[1],the binding decreased linearly
same,cell morphology,[2],"elongated, detached from the plate, aggregated, and died"
same,cell viability,[3],negative effect on the viability of both cell lines
